In assay [1] the target is T1, Acetylcholinesterase (Homo sapiens, UniProt P22303). Kind of assay: Inhibition of AChE (unknown origin) at 100 uM relative to control.
Assay [2] has as its target T2, Beta-secretase 1 (Homo sapiens, UniProt P56817). Put plainly: Inhibition of BACE1 (unknown origin) at 100 uM relative to control.
The target in assay [3] is Acetylcholinesterase (Electrophorus electricus, UniProt O42275). Put plainly: Inhibition of Electrophorus electricus AchE.
The target in assay [4] is T1, Acetylcholinesterase. Kind of assay: Inhibition of human recombinant AchE.
For assay [5], the target named is T2, Beta-secretase 1. Put plainly: Inhibition of human recombinant BACE1.

Molecules are shown by their SMILES.

T1 sequence (P22303 whole entry): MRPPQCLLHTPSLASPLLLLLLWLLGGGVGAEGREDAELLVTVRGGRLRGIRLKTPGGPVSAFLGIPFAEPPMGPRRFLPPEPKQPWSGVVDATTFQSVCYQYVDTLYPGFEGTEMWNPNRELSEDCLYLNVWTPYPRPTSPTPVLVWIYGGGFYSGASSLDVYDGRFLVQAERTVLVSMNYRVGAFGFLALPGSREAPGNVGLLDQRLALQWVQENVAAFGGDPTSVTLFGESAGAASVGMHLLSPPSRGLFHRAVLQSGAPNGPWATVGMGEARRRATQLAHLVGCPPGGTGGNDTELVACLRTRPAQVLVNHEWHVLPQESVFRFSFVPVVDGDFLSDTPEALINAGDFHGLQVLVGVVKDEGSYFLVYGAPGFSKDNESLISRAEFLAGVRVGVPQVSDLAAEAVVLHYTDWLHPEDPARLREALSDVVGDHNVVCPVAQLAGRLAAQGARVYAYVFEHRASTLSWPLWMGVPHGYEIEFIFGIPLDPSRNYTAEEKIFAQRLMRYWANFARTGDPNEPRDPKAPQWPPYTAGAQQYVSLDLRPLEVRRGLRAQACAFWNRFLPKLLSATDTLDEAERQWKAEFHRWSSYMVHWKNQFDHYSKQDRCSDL
T2 sequence (P56817 whole entry): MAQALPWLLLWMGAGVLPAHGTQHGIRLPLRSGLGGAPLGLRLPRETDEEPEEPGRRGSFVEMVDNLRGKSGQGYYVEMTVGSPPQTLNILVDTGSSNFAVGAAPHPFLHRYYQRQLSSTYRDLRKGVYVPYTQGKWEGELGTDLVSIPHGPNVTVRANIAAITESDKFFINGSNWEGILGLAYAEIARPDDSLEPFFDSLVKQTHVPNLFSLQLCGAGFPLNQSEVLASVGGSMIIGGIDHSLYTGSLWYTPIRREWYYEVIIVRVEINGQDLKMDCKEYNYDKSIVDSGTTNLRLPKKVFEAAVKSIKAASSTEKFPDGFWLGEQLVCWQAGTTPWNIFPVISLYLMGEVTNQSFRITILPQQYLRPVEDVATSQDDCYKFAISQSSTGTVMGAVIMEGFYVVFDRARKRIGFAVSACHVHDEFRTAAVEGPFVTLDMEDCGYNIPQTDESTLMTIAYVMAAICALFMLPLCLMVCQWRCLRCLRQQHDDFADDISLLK
Chain of Acetylcholinesterase (Electrophorus electricus, UniProt O42275) (O42275 whole entry): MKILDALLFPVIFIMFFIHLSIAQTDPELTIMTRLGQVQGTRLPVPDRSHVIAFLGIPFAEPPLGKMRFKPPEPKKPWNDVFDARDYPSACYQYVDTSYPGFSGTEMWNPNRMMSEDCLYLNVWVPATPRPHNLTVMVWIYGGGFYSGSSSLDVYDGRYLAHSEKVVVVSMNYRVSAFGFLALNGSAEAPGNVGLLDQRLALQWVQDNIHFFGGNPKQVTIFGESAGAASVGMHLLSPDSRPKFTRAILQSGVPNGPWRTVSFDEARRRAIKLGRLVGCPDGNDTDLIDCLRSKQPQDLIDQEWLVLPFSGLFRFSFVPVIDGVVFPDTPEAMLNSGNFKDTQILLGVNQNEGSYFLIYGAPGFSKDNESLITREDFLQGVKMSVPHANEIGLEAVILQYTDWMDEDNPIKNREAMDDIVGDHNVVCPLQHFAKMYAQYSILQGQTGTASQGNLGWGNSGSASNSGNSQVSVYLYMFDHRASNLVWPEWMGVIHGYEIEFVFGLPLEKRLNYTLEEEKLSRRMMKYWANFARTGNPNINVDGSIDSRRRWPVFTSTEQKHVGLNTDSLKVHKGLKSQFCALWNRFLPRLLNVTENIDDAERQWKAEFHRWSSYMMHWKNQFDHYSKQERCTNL

As to `COc1cc(O)c(C(=O)/C=C/c2ccc(O)cc2)cc1CC=C(C)C`, the inhibition was found to be 46% against Acetylcholinesterase [1] and 68% on Beta-secretase 1 [2].

Take `CC(C)=CCc1cc2c(cc1O)O[C@H](c1ccc(O)cc1)CC2=O`: the inhibition against Acetylcholinesterase [1] stood at 34%; against Beta-secretase 1 [2], 14%.

`CCCCCCCCCCCC1=CC(=O)C=CC1=O`: the IC50 on Acetylcholinesterase [3] turned out to be 2500 nM; on Acetylcholinesterase [4] it was 7910 nM; at Beta-secretase 1 [5] it was 2110 nM.

Source of the values: ChEMBL document CHEMBL5241074, “Dual-target compounds for Alzheimer's disease: Natural and synthetic AChE and BACE-1 dual-inhibitors and their structure-activity relationship (SAR)” (Eur J Med Chem, 2021).
